Laboratory results taken from paper PMC9217908, “Screening of commonly prescribed drugs for effects on the CAT1-mediated transport of L-arginine and arginine derivatives” (Amino Acids, 2022).
Where two headings read alike, the source gives them in different places.

Key:
Assay in all cases: cell-based
[1] = target: T1, CAT1 (cationic amino acid transporter 1, CAT1/SLC7A1) (Homo sapiens, UniProt P30825); design: species or system HEK-CAT1 (HEK293 stably transfected); Inhibition of net CAT1-mediated [3H]-ADMA (1 uM) uptake, 2.5 min, scintillation counting, vector control subtracted; conditions: HEK293, ADMA 1 uM as substrate; for inhibition at 20 µM: read-out: % Inhibition of ADMA uptake at 20 µM; for inhibition at 200 µM: read-out: % Inhibition of ADMA uptake at 200 µM
T1 construct: full-length human transporter stably transfected in HEK cells (HEK-CAT1); net uptake against HEK-VC vector control cells
Description: (§1) Uptake and inhibition assays using HEK-CAT1 and HEK-VC cells and L-arginine, L-homoarginine, and ADMA as substrates were performed using the protocol described (Strobel et al. [2012]; Chafai et al. [2017]). Briefly, after incubation, the supernatant was replaced with transport buffer containing [^3H]- L-arginine for 5 min and 2.5 min for medium containing [^3H]-L-homoarginine or [^3H]-ADMA with or without the test compound. The reference drugs were screened at concentrations of 20 µM (Figs. 1A, 2A, and 3A) and 200 µM (Figs. 1B, 2B, and 3B). […] The net uptake was determined by subtracting the total amount taken up by control cells from the amount taken up by CAT1-expressing cells, which was expressed as a percentage of the amount taken up by the control. To determine the inhibitory effects of the drugs on CAT1-mediated transport of L-arginine, L-homoarginine, or ADMA, the control was measured in the absence of the potential inhibitor. The value for the percent inhibition was calculated as: Inhibition (%) = 100 – (V/V0 ^* 100), where V and V0 are the net uptake rates (uptake into HEK-CAT1 cells—uptake into HEK-VC cells) with and without test drugs, respectively. […] Each bar represents the effect of one compound on CAT1-mediated ADMA (1 μM) uptake as percent inhibition. Data were obtained from at least two independent experiments performed in triplicate (n = 6–9) and each test data from the independent experiment were normalized to the respective control data to get the value of percent inhibition. Negative inhibition values indicate stimulated CAT1-mediated uptake. Data were analyzed using one-way ANOVA and Dunnett’s multiple comparison test with p < 0.05. Bars showing a statistically significant inhibition or transport stimulation are shaded in black

[2] = target: T1, CAT1 (cationic amino acid transporter 1, CAT1/SLC7A1); design: species or system HEK-CAT1 (HEK293 stably transfected); Inhibition of net CAT1-mediated [3H]-L-homoarginine (1 uM) uptake, 2.5 min, scintillation counting, vector control subtracted; conditions: HEK293, L-homoarginine 1 uM as substrate; for inhibition at 20 µM: read-out: % Inhibition of L-homoarginine uptake at 20 µM; for inhibition at 200 µM: read-out: % Inhibition of L-homoarginine uptake at 200 µM
Description: as §1, with “CAT1-mediated L-homoarginine” for “CAT1-mediated ADMA”

[3] = target: T1, CAT1 (cationic amino acid transporter 1, CAT1/SLC7A1); design: species or system HEK-CAT1 (HEK293 stably transfected); Inhibition of net CAT1-mediated [3H]-L-arginine (100 uM) uptake, 5 min, scintillation counting, vector control subtracted; conditions: HEK293, L-arginine 100 uM as substrate; for inhibition at 20 µM: read-out: % Inhibition of L-arginine uptake at 20 µM; for inhibition at 200 µM: read-out: % Inhibition of L-arginine uptake at 200 µM
Description: as §1, with “L-arginine (100” for “ADMA (1”

T1 sequence (P30825 whole entry): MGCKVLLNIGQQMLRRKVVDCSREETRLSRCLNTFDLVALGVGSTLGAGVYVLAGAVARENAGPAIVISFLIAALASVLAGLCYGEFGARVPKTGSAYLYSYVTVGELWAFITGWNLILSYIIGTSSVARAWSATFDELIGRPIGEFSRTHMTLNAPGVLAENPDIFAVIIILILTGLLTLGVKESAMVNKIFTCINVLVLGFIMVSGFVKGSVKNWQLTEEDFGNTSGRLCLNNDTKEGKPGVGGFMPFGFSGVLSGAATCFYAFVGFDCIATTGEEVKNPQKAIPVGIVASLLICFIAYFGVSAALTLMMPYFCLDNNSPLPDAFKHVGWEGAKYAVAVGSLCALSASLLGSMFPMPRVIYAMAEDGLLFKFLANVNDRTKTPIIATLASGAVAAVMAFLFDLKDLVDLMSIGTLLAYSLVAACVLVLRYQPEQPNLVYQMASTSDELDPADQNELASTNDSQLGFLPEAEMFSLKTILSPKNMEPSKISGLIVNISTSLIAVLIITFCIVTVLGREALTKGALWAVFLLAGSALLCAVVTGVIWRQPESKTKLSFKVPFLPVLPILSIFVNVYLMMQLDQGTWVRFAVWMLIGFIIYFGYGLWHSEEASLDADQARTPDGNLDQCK

| Compound | inhibition at 20 µM [1] | inhibition at 200 µM [1] | inhibition at 20 µM [2] | inhibition at 200 µM [2] | inhibition at 20 µM [3] | inhibition at 200 µM [3] |
| --- | --- | --- | --- | --- | --- | --- |
| C[C@H]1O[C@@H](O[C@H]2[C@@H](O)C[C@H](O[C@H]3[C@@H](O)C[C@H](O[C@H]4CC[C@@]5(C)[C@H](CC[C@@H]6[C@@H]5CC[C@]5(C)[C@@H](C7=CC(=O)OC7)CC[C@]65O)C4)O[C@@H]3C)O[C@@H]2C)C[C@H](O)[C@@H]1O [Digitoxin] | 4.3 ± 3.3% | 21.5 ± 2.5% | -7.2 ± 2.7% | -12.6 ± 2.5% | -7.2 ± 8.2% | -14.1 ± 4.2% |
| C[C@H]1O[C@@H](O[C@H]2[C@@H](O)C[C@H](O[C@H]3[C@@H](O)C[C@H](O[C@H]4CC[C@@]5(C)[C@H](CC[C@@H]6[C@@H]5C[C@@H](O)[C@]5(C)[C@@H](C7=CC(=O)OC7)CC[C@]65O)C4)O[C@@H]3C)O[C@@H]2C)C[C@H](O)[C@@H]1O [Digoxin] | -7.4 ± 5.9% | 14.4 ± 4.6% | -4.8 ± 6.8% | -12.7 ± 0.8% | -4.3 ± 7.3% | -14.9 ± 17.8% |
| COc1ccc([C@@H]2Sc3ccccc3N(CCN(C)C)C(=O)[C@@H]2OC(C)=O)cc1 [Diltiazem] | 8.5 ± 4.3% | 9.1 ± 7.7% | 8.6 ± 4.3% | 29 ± 2.6% | -7.3 ± 7.7% | 29.3 ± 2.5% |
| C[C@H]1c2cccc(O)c2C(=O)C2=C(O)[C@]3(O)C(=O)C(C(N)=O)=C(O)[C@@H](N(C)C)[C@@H]3[C@@H](O)[C@@H]21 [Doxycycline] | 3.1 ± 6% | 9.9 ± 3.1% | 9.7 ± 4.1% | 9.6 ± 1.4% | 9.7 ± 4.1% | 6.2 ± 0.6% |
| CNCC[C@H](Oc1cccc2ccccc12)c1cccs1 [Duloxetine] | 1.9 ± 5.4% | -14.2 ± 4.9% | 7.6 ± 6.5% | 11.9 ± 3.1% | 6.1 ± 7.4% | 12.6 ± 2.6% |
| CCOC(=O)[C@H](CCc1ccccc1)N[C@@H](C)C(=O)N1CCC[C@H]1C(=O)O [Enalapril] | 27.2 ± 2.1% | 5.3 ± 1.8% | 12.7 ± 4.6% | -9.5 ± 1.2% | 9.9 ± 8.3% | -1.5 ± 1.6% |
| C[C@@H](O)[C@H]1C(=O)N2C(C(=O)O)=C(S[C@@H]3CN[C@H](C(=O)Nc4cccc(C(=O)O)c4)C3)[C@H](C)[C@H]12 [Ertapenem] | -4.1 ± 6% | 9.9 ± 3.1% | -28.5 ± 4.8% | -15.1 ± 1.6% | -28.9 ± 4.8% | -15.8 ± 5.9% |
| C#C[C@]1(O)CC[C@H]2[C@@H]3CCc4cc(O)ccc4[C@H]3CC[C@@]21C [Ethinylestradiol] | -1.6 ± 3.4% | -35.3 ± 0.8% | 8.2 ± 5.4% | -10.1 ± 0.5% | 7.4 ± 5.9% | -10.5 ± 3.3% |
| Cc1ccc(-c2ncc(Cl)cc2-c2ccc(S(C)(=O)=O)cc2)cn1 [Etorixocib] | -17.2 ± 13.5% | -22.8 ± 2.2% | -5.4 ± 2.1% | 31.8 ± 4.3% | 0.7 ± 3.8% | -20.7 ± 2.9% |
| CCOC(=O)C1=C(C)NC(C)=C(C(=O)OC)C1c1cccc(Cl)c1Cl (stereo not drawn) [Felodipine] | -7.4 ± 4.4% | 3.6 ± 2.1% | -9.6 ± 2.8% | -18.2 ± 1% | -2.2 ± 5.9% | -39.2 ± 1.4% |
| CC(C)OC(=O)C(C)(C)Oc1ccc(C(=O)c2ccc(Cl)cc2)cc1 [Fenofibrate] | -4.8 ± 2.1% | 0.2 ± 3.2% | 10.1 ± 2.9% | 8.9 ± 0.4% | 16.3 ± 6.6% | 13.1 ± 2% |
| C[C@]12CCC(=O)C=C1CC[C@H]1[C@@H]3CC[C@](O)(C(=O)CO)[C@@]3(C)C[C@H](O)[C@@]12F [Fludrocortisone] | 0.5 ± 3.9% | -43.9 ± 4.9% | -27 ± 6.7% | -15.1 ± 0.6% | -29.4 ± 8.1% | -24.6 ± 1% |
| CNCCC(Oc1ccc(C(F)(F)F)cc1)c1ccccc1 (stereo not drawn) [Fluoxetine] | -2.4 ± 2% | -18.8 ± 7.8% | -4.4 ± 5.2% | 25.6 ± 1.2% | 46.5 ± 8.5% | 26 ± 1.5% |
| COc1ccc(Cl)cc1C(=O)NCCc1ccc(S(=O)(=O)NC(=O)NC2CCCCC2)cc1 [Glibenclamide] | 16.8 ± 2.5% | 8.1 ± 2.1% | 12.4 ± 2.8% | 10.1 ± 3% | 13.9 ± 3.4% | 14 ± 9.6% |
| NS(=O)(=O)c1cc2c(cc1Cl)NCNS2(=O)=O [Hydrochlorothiazide] | 5.5 ± 2.2% | 9.9 ± 3.5% | 8.5 ± 4.8% | 7.9 ± 1.2% | 6 ± 3.9% | 20.7 ± 14.1% |
| C[C@]12CCC(=O)C=C1CC[C@@H]1[C@@H]2[C@@H](O)C[C@@]2(C)[C@H]1CC[C@]2(O)C(=O)CO [Hydrocortisone] | -0.1 ± 2.8% | -9.9 ± 2.7% | 13.9 ± 9.6% | -9.5 ± 2.6% | 8.5 ± 4.8% | -4.3 ± 2.7% |
| CC(C)Cc1ccc(C(C)C(=O)O)cc1 (stereo not drawn) [Ibuprofen] | -20.2 ± 5.9% | -44.8 ± 7.4% | -7.5 ± 2.1% | -26.1 ± 0.6% | -5.1 ± 3.6% | -33.7 ± 1.4% |
| Cc1ccc(NC(=O)c2ccc(CN3CCN(C)CC3)cc2)cc1Nc1nccc(-c2cccnc2)n1 [Imatinib] | 11.2 ± 3.4% | 20.7 ± 14.1% | -24.9 ± 2.1% | -20.9 ± 1.1% | -8.2 ± 5.2% | -42.8 ± 0.3% |
